Like-named read-outs stand apart in the source and are kept apart here.
Tests used:
[1] = Thermal stability / form transformation on heating or drying (XRPD); type: physicochemical; conditions: for form obtained upon drying / heating: heating under ambient or reduced pressure, generally about 40-80° C.; for form after heating at 120° C.: 1 h, atmospheric pressure; for form after heating at 120° C. / form after heating at about 100° C.: XRPD; for form after heating at about 100° C.: 100° C. oil bath, 8.5 h
Description: The various crystalline forms are related to each other in that drying of one form may result in a transformation to another form, namely nateglinide Forms A, B, D, E, F, G, H, I, J, K, L, M, N, Q, S, T, V, Z, α, β, δ, γ, ε, θ and Ω. The drying is carried out by heating a sample under ambient or reduced pressure. Generally, a preferred temperature is from about 40° C. to about 80° C., more preferably under reduced pressure. […] The term “stable” as used herein refers to a polymorphic change of less than about 5% by weight, more preferably less than about 2%, particularly for Form δ.
Sample of nateglinide form U (˜1 g) was introduced into a 6-gram vial and heated over 8.5 h in a 100° C. oil bath. The vial were extracted from the bath.
Sample of nateglinide form U (˜0.5 g) was heated to 120° C. for 1 h in an atmospheric pressure.
Sample of nateglinide form δ (˜0.5 g) was heated to 120° C. for 1 h in an atmospheric pressure.

[2] = Absorption of solvent vapors by nateglinide Form H; type: physicochemical; conditions: for Δ (overweight): room temperature, 4 d
Description: Nateglinide (3.50 g) was added to a polypropylene can and weighed. The can was introduced into a bigger polypropylene container containing a solvent, and stored at room temperature. The can was removed from the container and weighed (Wfinal). The can content was divided into 2 portions. One portion was dried at a temperature of 55° C. and a pressure of 20-30 mmHg to constant weight (±0.01 g).

[3] = demonstrated by DSC; cited from earlier work
[4] = Polymorphic stability on storage at room temperature for 24 h (XRPD); type: physicochemical; conditions: for crystal form after storage at RT for 24 h: room temperature and pressure, 24 h (about a day), open bottle, XRPD
Description: The various crystalline forms are also analyzed by Thermal Gravimetric Analysis (TGA). […] In contrast to the above listed forms, TGA profiles of forms L, P, U, α, δ and σ show no significant weight loss. These polymorphic forms of nateglinide are free of bound solvents, i.e., less than about 2% LOD. Table II lists the solvents used for the preparation for nateglinide solvated forms, as well as LOD values based on TGA analysis.
Storage at room temperature and pressure may also cause a transition of one form to another.
X-Ray diffraction was performed on X-Ray powder diffractometer, Scintag variable goniometer, Cu-tube, solid state detector. Sample holder: A round standard aluminum sample holder with round zero background quartz plate.
The sample was put on the sample holder and immediately analyzed as is. Scanning parameters: Range: 2-40 deg 2θ, Continuos Scan, Rate: 3 deg./min.

[5] = Stability at about 40° C. and about 75% relative humidity; type: physicochemical; conditions: about 40° C., relative humidity about 75%
Description: Crystalline Form δ is stable at a temperature of about 40° C. and a relative humidity of about 75% for at least about 3 months.

[6] = cited from earlier work

CC(C)[C@H]1CC[C@H](C(=O)N[C@H](Cc2ccccc2)C(=O)O)CC1 [Form H, nateglinide]
thermal stability (conversion to another form upon heating) [1]: thermally stable | Δ (overweight) ([2]; Acetone vapors, 3.50 g NTG): 0.08 | Δ (overweight) ([2]; DCM vapors, 3.49 g NTG): 0.04 | Δ (overweight) ([2]; EtOH vapors, 3.50 g NTG): 0.52 | Δ (overweight) ([2]; MeOH vapors, 3.50 g NTG): 0.18 | Δ (overweight) ([2]; Water vapors, 3.50 g NTG): 0.02 | stability in the presence of solvent vapors ([2]; vapors of water and acetone): stable

CC(C)[C@H]1CC[C@H](C(=O)N[C@H](Cc2ccccc2)C(=O)O)CC1 [Form M, nateglinide]
form obtained upon drying / heating [1]: Form L

CC(C)[C@H]1CC[C@H](C(=O)N[C@H](Cc2ccccc2)C(=O)O)CC1 [Form Z, nateglinide]
form obtained upon drying / heating [1]: convert to Form B

CC(C)[C@H]1CC[C@H](C(=O)N[C@H](Cc2ccccc2)C(=O)O)CC1 [Form Y, nateglinide]
thermal stability (conversion to another form upon heating) [1]: somewhat stable

CC(C)[C@H]1CC[C@H](C(=O)N[C@H](Cc2ccccc2)C(=O)O)CC1 [Form N, nateglinide]
form obtained upon drying / heating [1]: Form L

CC(C)[C@H]1CC[C@H](C(=O)N[C@H](Cc2ccccc2)C(=O)O)CC1 [Form F, nateglinide]
form obtained upon drying / heating [1]: convert to a mixture of Form B and G

CC(C)[C@H]1CC[C@H](C(=O)N[C@H](Cc2ccccc2)C(=O)O)CC1 [Form O, nateglinide]
thermal stability (conversion to another form upon heating) [1]: somewhat stable

CC(C)[C@H]1CC[C@H](C(=O)N[C@H](Cc2ccccc2)C(=O)O)CC1 [Form B, nateglinide]
thermal stability (conversion to another form upon heating) [1]: thermally stable | stability during grinding [3]: unstable and susceptible to change during grinding

CC(C)[C@H]1CC[C@H](C(=O)N[C@H](Cc2ccccc2)C(=O)O)CC1 [Form G, nateglinide]
form obtained upon drying / heating [1]: convert to Form B

CC(C)[C@H]1CC[C@H](C(=O)N[C@H](Cc2ccccc2)C(=O)O)CC1 [Form ε, nateglinide]
form obtained upon drying / heating [1]: Form H

CC(C)[C@H]1CC[C@H](C(=O)N[C@H](Cc2ccccc2)C(=O)O)CC1 [Form L, nateglinide]
thermal stability (conversion to another form upon heating) [1]: thermally stable

CC(C)[C@H]1CC[C@H](C(=O)N[C@H](Cc2ccccc2)C(=O)O)CC1 [Form E, nateglinide]
form obtained upon drying / heating [1]: convert to Form B

CC(C)[C@H]1CC[C@H](C(=O)N[C@H](Cc2ccccc2)C(=O)O)CC1 [Form Q, nateglinide]
form obtained upon drying / heating [1]: convert to Form B | crystal form after storage at RT for 24 h [4]: converts to Form Y | crystal form after storage at RT for 24 h ([4]; listed as Q): Form Y, which contains

CC(C)[C@H]1CC[C@H](C(=O)N[C@H](Cc2ccccc2)C(=O)O)CC1 [Form α, nateglinide]
thermal stability (conversion to another form upon heating) [1]: somewhat stable | form obtained upon drying / heating [1]: convert to Form B

CC(C)[C@H]1CC[C@H](C(=O)N[C@H](Cc2ccccc2)C(=O)O)CC1 [Form δ, nateglinide]
thermal stability (conversion to another form upon heating) [1]: somewhat stable | polymorph after drying in a stirred reactor ([1]; 60 mmHg vacuum, 60° C., 6 hours): remained delta form | stability when heated to 60° C. overnight ([1]; 60° C., overnight (at least about 8 hours)): stable | form after heating at 120° C. [1]: results in Form B | form after heating at 120° C. ([1]; listed as form δ): Form B | polymorphic form after drying in a fluidized bed drier ([1]; 4 hours at 60° C.): delta | form obtained upon drying / heating [1]: convert to Form B | time for which the crystalline form is stable [5]: at least 3 months

CC(C)[C@H]1CC[C@H](C(=O)N[C@H](Cc2ccccc2)C(=O)O)CC1 [Form I, nateglinide]
crystal form after storage at RT for 24 h [4]: converts to Form L | crystal form after storage at RT for 24 h ([4]; listed as I): Form L

CC(C)[C@H]1CC[C@H](C(=O)N[C@H](Cc2ccccc2)C(=O)O)CC1 [Form θ, nateglinide]
form obtained upon drying / heating [1]: convert to Form B

CC(C)[C@H]1CC[C@H](C(=O)N[C@H](Cc2ccccc2)C(=O)O)CC1 [Form σ, nateglinide]
thermal stability (conversion to another form upon heating) [1]: thermally stable

CC(C)[C@H]1CC[C@H](C(=O)N[C@H](Cc2ccccc2)C(=O)O)CC1 [acetonitrile solvate of Form Epsilon, nateglinide]
form obtained upon drying / heating [1]: Form B

CC(C)[C@H]1CC[C@H](C(=O)N[C@H](Cc2ccccc2)C(=O)O)CC1 [Form A, nateglinide]
form obtained upon drying / heating [1]: convert to Form B | form obtained upon drying / heating ([1]; listed as Form a): Form S | crystal form after storage at RT for 24 h [4]: partially converts to Form B | crystal form after storage at RT for 24 h ([4]; listed as A): conversion to Form B

CC(C)[C@H]1CC[C@H](C(=O)N[C@H](Cc2ccccc2)C(=O)O)CC1 [Form Ω, nateglinide]
form after drying in a vacuum oven ([1]; 50° C., vacuum oven, overnight, XRD): mixture of Form omega and Form Z | form obtained upon drying / heating [1]: convert to Form B

CC(C)[C@H]1CC[C@H](C(=O)N[C@H](Cc2ccccc2)C(=O)O)CC1 [nitromethane solvates of Form Epsilon, nateglinide]
form obtained upon drying / heating [1]: Forms H or P

CC(C)[C@H]1CC[C@H](C(=O)N[C@H](Cc2ccccc2)C(=O)O)CC1 [Form T, nateglinide]
form obtained upon drying / heating [1]: convert to a mixture of Form B and G | crystal form after storage at RT for 24 h [4]: converts to Form E | crystal form after storage at RT for 24 h ([4]; listed as T): Form E

CC(C)[C@H]1CC[C@H](C(=O)N[C@H](Cc2ccccc2)C(=O)O)CC1 [nateglinide, (−)—N-(trans-4-isopropylcyclohexanecarbonyl)-D-Phenylalanine]
solubility ([6]; in acetonitrile): sparingly soluble | solubility ([6]; in chloroform): freely soluble | solubility ([6]; in ethanol): freely soluble | solubility ([6]; in ether): soluble | solubility ([6]; in methanol): freely soluble | solubility ([6]; in octanol): sparingly soluble | solubility ([6]; in water): practically insoluble

CC(C)[C@H]1CC[C@H](C(=O)N[C@H](Cc2ccccc2)C(=O)O)CC1 [Form C, nateglinide]
form obtained upon drying / heating [1]: convert to Form B

CC(C)[C@H]1CC[C@H](C(=O)N[C@H](Cc2ccccc2)C(=O)O)CC1 [Form V, nateglinide]
form obtained upon drying / heating [1]: Form H

CC(C)[C@H]1CC[C@H](C(=O)N[C@H](Cc2ccccc2)C(=O)O)CC1 [Form J, nateglinide]
form obtained upon drying / heating [1]: convert to Form B | XRD pattern after storage at RT for overnight ([4]; room temperature, overnight): XRD pattern slightly

CC(C)[C@H]1CC[C@H](C(=O)N[C@H](Cc2ccccc2)C(=O)O)CC1 [Form U, nateglinide]
thermal stability (conversion to another form upon heating) [1]: thermally stable | form after heating at about 100° C. [1]: does not undergo a transition | form after heating at about 100° C. ([1]; listed as form U): Form U | form after heating at 120° C. [1]: Form U

CC(C)[C@H]1CC[C@H](C(=O)N[C@H](Cc2ccccc2)C(=O)O)CC1 [Form β, nateglinide]
form obtained upon drying / heating [1]: convert to Form B
